Data taken from article PMC3062473 (ChemMedChem, 2010).

Experiments:
[1] = biological target: T1, Caspase 7 (Homo sapiens, UniProt P55210); conditions: cited from earlier work
T1 sequence (P55210 24-198 limits assumed): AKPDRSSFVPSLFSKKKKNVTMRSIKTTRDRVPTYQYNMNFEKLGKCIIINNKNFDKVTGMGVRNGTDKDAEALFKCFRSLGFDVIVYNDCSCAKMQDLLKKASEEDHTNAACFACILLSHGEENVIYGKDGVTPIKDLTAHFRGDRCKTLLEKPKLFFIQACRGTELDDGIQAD
T1 sequence (P55210 207-303 limits assumed): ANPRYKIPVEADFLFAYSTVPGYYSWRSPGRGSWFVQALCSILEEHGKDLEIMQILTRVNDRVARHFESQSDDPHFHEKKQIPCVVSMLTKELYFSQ

[2] = biological target: T2, Caspase 14 (Homo sapiens, UniProt P31944); assay: Reaction Biology caspase panel; format: biochemical; conditions: read-out: Caspase 14 IC50; (Z-LEHD)2-R110 substrate; three separate experiments
T2 sequence (P31944 6-146 limits assumed): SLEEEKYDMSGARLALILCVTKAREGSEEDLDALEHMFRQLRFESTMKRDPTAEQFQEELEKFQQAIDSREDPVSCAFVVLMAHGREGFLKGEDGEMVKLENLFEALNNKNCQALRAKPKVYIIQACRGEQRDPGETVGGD
T2 sequence (P31944 153-242 limits assumed): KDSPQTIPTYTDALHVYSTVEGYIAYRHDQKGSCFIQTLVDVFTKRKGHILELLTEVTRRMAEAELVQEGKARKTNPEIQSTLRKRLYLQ

[3] = biological target: T1, Caspase 7; assay: Reaction Biology caspase panel; format: biochemical; conditions: read-out: Caspase 7 IC50; (Z-DEVD)2-R110 substrate; three separate experiments
[4] = biological target: T3, Caspase 6 (Homo sapiens, UniProt P55212); assay: Reaction Biology caspase panel; format: biochemical; conditions: read-out: Caspase 6 IC50; (Z-DEVD)2-R110 substrate; three separate experiments
T3 sequence (P55212 24-179 limits assumed): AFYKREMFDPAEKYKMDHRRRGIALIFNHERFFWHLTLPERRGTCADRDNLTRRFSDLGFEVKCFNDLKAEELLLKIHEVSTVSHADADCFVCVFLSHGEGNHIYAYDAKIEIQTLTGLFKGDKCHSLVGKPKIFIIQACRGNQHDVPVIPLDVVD
T3 sequence (P55212 194-293 limits assumed): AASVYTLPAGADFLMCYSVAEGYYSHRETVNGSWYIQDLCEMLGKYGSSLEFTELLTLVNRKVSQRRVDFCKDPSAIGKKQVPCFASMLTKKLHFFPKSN

[5] = biological target: T4, Caspase 3 (Homo sapiens, UniProt P42574); assay: Reaction Biology caspase panel; format: biochemical; conditions: read-out: Caspase 3 IC50; (Z-DEVD)2-R110 substrate; three separate experiments
T4 sequence (P42574 29-175 limits assumed): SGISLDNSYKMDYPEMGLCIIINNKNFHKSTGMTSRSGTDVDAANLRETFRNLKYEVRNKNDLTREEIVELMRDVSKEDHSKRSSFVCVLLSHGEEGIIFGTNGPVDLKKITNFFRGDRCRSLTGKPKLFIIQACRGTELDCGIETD
T4 sequence (P42574 176-277 limits assumed): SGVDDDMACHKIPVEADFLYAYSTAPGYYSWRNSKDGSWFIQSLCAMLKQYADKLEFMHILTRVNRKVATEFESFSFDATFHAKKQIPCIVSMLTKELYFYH

[6] = biological target: T5, Caspase 5 (Homo sapiens, UniProt P51878); assay: Reaction Biology caspase panel; format: biochemical; conditions: read-out: Caspase 5 IC50; (Z-LEHD)2-R110 substrate; three separate experiments
T5 sequence (P51878 137-327 limits assumed): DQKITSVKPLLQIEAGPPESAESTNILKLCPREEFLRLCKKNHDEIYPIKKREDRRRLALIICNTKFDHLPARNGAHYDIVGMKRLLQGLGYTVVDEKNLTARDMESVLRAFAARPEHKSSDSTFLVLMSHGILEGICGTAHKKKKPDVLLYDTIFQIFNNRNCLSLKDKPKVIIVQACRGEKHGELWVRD
T5 sequence (P51878 347-434 limits assumed): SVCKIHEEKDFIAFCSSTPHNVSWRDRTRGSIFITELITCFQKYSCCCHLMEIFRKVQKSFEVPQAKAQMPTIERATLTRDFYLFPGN

[7] = biological target: T3, Caspase 6; conditions: read-out: Ki caspase 6; cited from earlier work
[8] = biological target: T6, Caspase 4 (Homo sapiens, UniProt P49662); assay: Reaction Biology caspase panel; format: biochemical; conditions: read-out: Caspase 4 IC50; (Z-LEHD)2-R110 substrate; three separate experiments
T6 sequence (P49662 81-270 limits assumed): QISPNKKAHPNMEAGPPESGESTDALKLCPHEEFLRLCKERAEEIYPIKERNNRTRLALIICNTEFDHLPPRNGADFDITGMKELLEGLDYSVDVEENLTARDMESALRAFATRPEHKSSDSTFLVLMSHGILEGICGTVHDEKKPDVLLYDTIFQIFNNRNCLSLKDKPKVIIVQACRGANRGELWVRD
T6 sequence (P49662 290-377 limits assumed): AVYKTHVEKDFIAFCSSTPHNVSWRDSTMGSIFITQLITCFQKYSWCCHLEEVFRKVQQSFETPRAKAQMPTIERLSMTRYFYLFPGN

[9] = biological target: T7, Caspase 10 (Homo sapiens, UniProt Q92851); assay: Reaction Biology caspase panel; format: biochemical; conditions: read-out: Caspase 10 IC50; (Z-LEHD)2-R110 substrate; three separate experiments
T7 sequence (Q92851 220-415 limits assumed): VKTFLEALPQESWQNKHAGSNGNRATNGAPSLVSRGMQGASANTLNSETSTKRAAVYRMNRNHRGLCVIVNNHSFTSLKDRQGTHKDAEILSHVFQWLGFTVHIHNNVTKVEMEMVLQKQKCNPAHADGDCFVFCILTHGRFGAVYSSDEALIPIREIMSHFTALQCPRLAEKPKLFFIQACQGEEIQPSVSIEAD
T7 sequence (Q92851 416-521 limits assumed): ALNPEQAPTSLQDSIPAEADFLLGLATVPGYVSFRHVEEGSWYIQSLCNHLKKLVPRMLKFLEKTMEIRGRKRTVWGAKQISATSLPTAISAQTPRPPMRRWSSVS

[10] = biological target: T8, Caspase 9 (Homo sapiens, UniProt P55211); conditions: read-out: Ki caspase 9; cited from earlier work
T8 sequence (P55211 1-315 limits assumed): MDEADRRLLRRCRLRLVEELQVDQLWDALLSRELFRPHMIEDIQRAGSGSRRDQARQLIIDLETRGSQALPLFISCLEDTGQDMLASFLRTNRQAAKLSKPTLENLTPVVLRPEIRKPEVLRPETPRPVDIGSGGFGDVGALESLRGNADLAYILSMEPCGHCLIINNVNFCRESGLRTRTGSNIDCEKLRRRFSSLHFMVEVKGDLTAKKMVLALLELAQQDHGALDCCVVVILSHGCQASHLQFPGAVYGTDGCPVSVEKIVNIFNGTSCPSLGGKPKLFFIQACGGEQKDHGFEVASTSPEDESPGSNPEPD
T8 sequence (P55211 331-416 limits assumed): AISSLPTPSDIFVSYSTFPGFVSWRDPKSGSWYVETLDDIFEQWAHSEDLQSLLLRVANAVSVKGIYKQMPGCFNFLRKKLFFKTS

IC50 [2]: 58.5 nM | IC50 [3]: > 10000 nM | IC50 [4]: > 10000 nM | IC50 [5]: > 10000 nM | IC50 [6]: 10.6 nM | IC50 [8]: 14.5 nM | IC50 [9]: 66.5 nM
SMILES: CC(C)(C)[C@H](NC(=O)c1ccc(N)c(Cl)c1)C(=O)N1CCC[C@H]1C(=O)N[C@H](C=O)CC(=O)O [Compound 2b, reference compound]
activity against caspase 7 [1]: little activity | Ki [7]: 560 nM | Ki [10]: 1030 nM
